Data from patent US20200255478A1, “NOVEL COMPOUNDS ACTIVATING THE NRF2 PATHWAY” (Almirall, S.A., priority 2017, published 2020).

Biological target: Keap1-Maltose Binding Protein (MBP tag) (Homo sapiens, UniProt Q14145)
Assay: Nrf2-Keap1 HTRF (TR-FRET) binding assay: displacement of biotinylated ETGE peptide from Keap1-MBP

Keap1-Maltose Binding Protein (MBP tag), sequence (Q14145 whole entry): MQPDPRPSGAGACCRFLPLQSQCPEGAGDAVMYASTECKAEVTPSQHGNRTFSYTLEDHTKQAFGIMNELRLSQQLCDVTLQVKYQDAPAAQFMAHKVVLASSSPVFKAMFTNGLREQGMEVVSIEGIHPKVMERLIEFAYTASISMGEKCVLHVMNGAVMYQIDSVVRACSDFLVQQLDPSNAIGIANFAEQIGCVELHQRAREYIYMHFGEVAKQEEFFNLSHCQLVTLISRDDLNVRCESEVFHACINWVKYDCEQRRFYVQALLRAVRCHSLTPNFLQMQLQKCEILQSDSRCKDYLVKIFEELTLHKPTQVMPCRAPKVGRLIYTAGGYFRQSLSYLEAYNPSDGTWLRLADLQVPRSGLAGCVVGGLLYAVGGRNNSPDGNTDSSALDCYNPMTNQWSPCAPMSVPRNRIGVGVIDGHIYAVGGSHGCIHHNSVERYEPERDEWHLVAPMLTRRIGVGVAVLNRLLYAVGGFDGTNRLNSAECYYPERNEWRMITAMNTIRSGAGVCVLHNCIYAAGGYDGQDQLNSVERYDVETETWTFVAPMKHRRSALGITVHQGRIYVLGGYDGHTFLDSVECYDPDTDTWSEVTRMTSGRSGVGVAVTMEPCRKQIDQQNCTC

`CCCCCCCCCCCCCCCCCCCC(=O)N[C@H]1C[C@H]2C(=O)N[C@@H](CCC(N)=O)C(=O)N[C@H]3CSCc4ccccc4CSC[C@H](NC(=O)[C@H](CCC(=O)O)NC(=O)CNC(=O)[C@H]([C@@H](C)O)NC(=O)[C@H](CCC(=O)O)NC(=O)[C@@H]4CCCN4C(=O)[C@H](CC(=O)O)NC3=O)C(=O)N[C@@H](CC(C)C)C(=O)N3CCC[C@@H]3C(=O)N2C1` [Example 90, {[&^1Pro((4S)-NH-arachidyl)-Gln-Cys(&^2)-Asp-Pro-Glu-Thr-Gly-Glu-Cys(&^3)-Leu-D-Pro&^1][&^2(1,2-phenylenediyl)dimethylene&^3]}] was tested, and the IC50 was under 1 nM.
